± gives the standard deviation of the averaged measurements.
Key:
Experiment in all cases: normalised growth rate inhibition (GR value) relative to DMSO control (GR (1 = untreated growth, 0 = cytostasis, <0 = cytotoxic)); higher = less growth inhibition
Conditions in all cases: 72 h
[1] = system: HS578T
Method: (§1)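 Breast cancer cell lines (BT-20, Hs 578T, MCF 10A, MCF7, MDA-MB-231, SK-BR-3) were plated in 384-well plates and treated 24 h later with drugs at six concentrations (0.04-10 µM). Viable cells were counted by Hoechst/dead-cell-stain imaging at 0 and 72 h. Counts were normalised to DMSO controls on the same plate to give the relative cell count and the growth-rate inhibition (GR) value; technical plate triplicates were averaged for each biological replicate.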

[2] = system: SKBR3
Method: as §1

[3] = system: MCF10A
Method: as §1

[4] = system: BT20
Method: as §1

[5] = system: MCF7
Method: as §1

[6] = system: MDAMB231
Method: as §1

Compound	normalised growth rate inhibition ([1]; 0.04 µM)	normalised growth rate inhibition ([1]; 0.12 µM)	normalised growth rate inhibition ([1]; 0.37 µM)	normalised growth rate inhibition ([1]; 1.11 µM)	normalised growth rate inhibition ([1]; 3.33 µM)	normalised growth rate inhibition ([1]; 10 µM)	normalised growth rate inhibition ([2]; 0.04 µM)	normalised growth rate inhibition ([2]; 0.12 µM)	normalised growth rate inhibition ([2]; 0.37 µM)	normalised growth rate inhibition ([2]; 1.11 µM)	normalised growth rate inhibition ([2]; 3.33 µM)	normalised growth rate inhibition ([2]; 10 µM)	normalised growth rate inhibition ([3]; 0.04 µM)	normalised growth rate inhibition ([3]; 0.12 µM)	normalised growth rate inhibition ([3]; 0.37 µM)	normalised growth rate inhibition ([3]; 1.11 µM)	normalised growth rate inhibition ([3]; 3.33 µM)	normalised growth rate inhibition ([3]; 10 µM)	normalised growth rate inhibition ([4]; 0.04 µM)	normalised growth rate inhibition ([4]; 0.12 µM)	normalised growth rate inhibition ([4]; 0.37 µM)	normalised growth rate inhibition ([4]; 1.11 µM)	normalised growth rate inhibition ([4]; 3.33 µM)	normalised growth rate inhibition ([4]; 10 µM)	normalised growth rate inhibition ([5]; 0.04 µM)	normalised growth rate inhibition ([5]; 0.12 µM)	normalised growth rate inhibition ([5]; 0.37 µM)	normalised growth rate inhibition ([5]; 1.11 µM)	normalised growth rate inhibition ([5]; 3.33 µM)	normalised growth rate inhibition ([5]; 10 µM)	normalised growth rate inhibition ([6]; 0.04 µM)	normalised growth rate inhibition ([6]; 0.12 µM)	normalised growth rate inhibition ([6]; 0.37 µM)	normalised growth rate inhibition ([6]; 1.11 µM)	normalised growth rate inhibition ([6]; 3.33 µM)	normalised growth rate inhibition ([6]; 10 µM)
COc1cc(N2CCC(N3CCN(C)CC3)CC2)ccc1Nc1ncc(Cl)c(Nc2ccccc2S(=O)(=O)C(C)C)n1 [NVP-TAE684]	0.885 ± 0.041	0.61 ± 0.098	0.609 ± 0.073	0.351 ± 0.11	0.111 ± 0.042	-0.201 ± 0.15	1.08 ± 0.047	0.782 ± 0.2	0.928 ± 0.069	0.691 ± 0.16	0.197 ± 0.2	-0.232 ± 0.068	0.889 ± 0.06	0.754 ± 0.19	0.647 ± 0.14	0.555 ± 0.12	0.429 ± 0.14	0.123 ± 0.1	1.04 ± 0.012	0.776 ± 0.2	0.972 ± 0.088	0.829 ± 0.13	0.447 ± 0.3	0.133 ± 0.28	0.553 ± 0.22	0.133 ± 0.13	-0.0107 ± 0.12	-0.108 ± 0.053	-0.129 ± 0.021	-0.198 ± 0.18	0.908 ± 0.035	0.737 ± 0.11	0.694 ± 0.089	0.389 ± 0.14	0.117 ± 0.14	-0.228 ± 0.21
O=C1c2c(O)ccc(O)c2C(=O)c2c(NCCNCCO)ccc(NCCNCCO)c21 [mitoxantrone]	0.0811 ± 0.1	-0.0173 ± 0.041	-0.0612 ± 0.043	-0.207 ± 0.087	-0.394 ± 0.11	-0.511 ± 0.17	-0.0581 ± 0.17	-0.0745 ± 0.18	-0.0948 ± 0.2	-0.164 ± 0.17	-0.353 ± 0.13	-0.707 ± 0.16	0.228 ± 0.057	0.0237 ± 0.034	-0.00408 ± 0.025	-0.0492 ± 0.02	-0.186 ± 0.1	-0.142 ± 0.092	0.252 ± 0.12	0.0494 ± 0.084	-0.0983 ± 0.12	-0.205 ± 0.14	-0.243 ± 0.12	-0.461 ± 0.18	0.0337 ± 0.042	0.0173 ± 0.037	0.0313 ± 0.056	-0.141 ± 0.11	-0.348 ± 0.039	-0.59 ± 0.15	-0.0551 ± 0.058	-0.0634 ± 0.075	-0.137 ± 0.1	-0.222 ± 0.15	-0.327 ± 0.24	-0.48 ± 0.21
CN1CCN(CCOc2cc(OC3CCOCC3)c3c(Nc4c(Cl)ccc5c4OCO5)ncnc3c2)CC1 [saracatinib]	0.9858 ± 0.0065	0.92 ± 0.039	0.828 ± 0.043	0.697 ± 0.088	0.609 ± 0.089	0.339 ± 0.092	1.15 ± 0.098	1.12 ± 0.1	1 ± 0.07	0.916 ± 0.08	0.763 ± 0.057	0.207 ± 0.11	1.012 ± 0.0071	0.9684 ± 0.0069	0.906 ± 0.045	0.745 ± 0.12	0.534 ± 0.14	0.108 ± 0.033	0.993 ± 0.057	0.944 ± 0.024	0.877 ± 0.032	0.785 ± 0.06	0.621 ± 0.11	0.26 ± 0.07	0.854 ± 0.055	0.661 ± 0.12	0.43 ± 0.2	0.323 ± 0.27	0.228 ± 0.26	0.266 ± 0.21	0.862 ± 0.075	0.704 ± 0.086	0.587 ± 0.065	0.51 ± 0.09	0.489 ± 0.12	0.348 ± 0.11
COc1cc2ncn(-c3cc(OCc4ccccc4C(F)(F)F)c(C(N)=O)s3)c2cc1OC	0.959 ± 0.075	0.603 ± 0.19	0.0393 ± 0.039	-0.137 ± 0.087	-0.145 ± 0.12	0.00336 ± 0.2	0.847 ± 0.018	0.463 ± 0.19	-0.0831 ± 0.12	-0.157 ± 0.18	-0.213 ± 0.17	0.0233 ± 0.42	0.96 ± 0.027	0.817 ± 0.083	0.412 ± 0.13	0.0464 ± 0.034	-0.0733 ± 0.13	-0.101 ± 0.17	0.853 ± 0.061	0.614 ± 0.18	0.331 ± 0.27	-0.00404 ± 0.12	-0.126 ± 0.06	-0.0325 ± 0.31	0.68 ± 0.15	0.279 ± 0.18	0.14 ± 0.023	0.072 ± 0.019	0.0415 ± 0.007	0.167 ± 0.099	0.892 ± 0.064	0.736 ± 0.11	0.404 ± 0.12	0.0556 ± 0.12	-0.0347 ± 0.12	0.0238 ± 0.14
